Marks after values point to notes of the source that are not given here.
Columns and labels:
[1] = system: H1975 cell lines; experiment: Anti-cancer activity (tumor volume) in H1975 lung cancer xenograft nude mice; type: in vivo, human; conditions: CKD-516 3 mg/kg ip, twice a week for three weeks; for Tumor volume / tumor growth, result in words: FIG. 1, FIG. 2
Method: As a human tumor cell line, a lung cancer cell line, i.e., H1975 cell lines were purchased from the American Type Culture Collections (ATCC). One vial of the cell lines was inserted into an RPMI1640 medium (Gibco, 22400) containing a heatinactivated 10% fetal bovine serum (FBS; Gibco, 10082-742), and cultured in a 5% CO2 incubator at 37° C. The resulting cells were washed with PBS, after which a 10-fold dilution of 2.5% Trypsin-EDTA (Gibco, 15090) was added thereto, such that cells were isolated therefrom. Then, centrifugation was performed (at 1,000 rpm for 5 min), after which supernatant thereof was discarded, such that a cell suspension was obtained by means of a new medium. A survival rate was identified with a microscope to make a preparation in an amount of 1.0×10^7 cells/mL.
The five-week old male […] nude mice (Hsd: Athymic Nude-Foxn1^nu) were purchased from Saeron Bio Inc. (Gyeonggi Province in South Korea).
Thus prepared tumor cell lines were subcutaneously (sc) injected by 0.2 ml (2×10^6 cells) into a back of the mice by using a 26-gauge needle syringe. In about three to four weeks after the injection, animals whose tumor sizes reached 170 mm^3 to 220 mm^3 were selected and used for an experiment.
A comparison between a positive control group and groups dosed with a test substance with regard to a negative control group, and a comparison between the positive control group and the groups dosed with a test substance were verified through One-way ANOVA. At this time, assuming that significance was accepted, a post-hoc test was performed with Duncan test, if an equal variance was accepted, and with Dunnett's test, if the equal variance was not accepted. If p-value is 0.05 or less, significance was accepted, and SPSS 10.1, a statistical program in common use, was used.

[2] = system: H460 cancer cell lines; experiment: Anti-cancer activity (tumor volume) in H460 lung cancer tissue-transplanted Balb/c nude mice; conditions: H460 tumor transplant, paclitaxel 20 mg/kg iv, CKD-516 2.5 mg/kg ip, once a week for three weeks, FIG. 5, FIG. 6
Method: The four-week old male Balb/c nude mice were purchased from Central Lab Animal Inc.
In 20 to 25 days later, the mice were subjected to euthanasia by means of cervical vertebral dislocation, after which a solid cancer proliferated in the mice was sterilely isolated therefrom to obtain fresh cancer tissues, from which connective tissues, necrotic tissues, skins, etc. were removed.
The cancer tissues were divided by 50 mg in a sterile state, and subcutaneously transplanted into the mice by using a 16-gauge trocar. In 12 days after the transplantation, the mice whose cancer tissues were proliferated up to a certain size, were selected and used for the experiment.
Paclitaxel was dissolved in an excipient (excipient 2), which was prepared by mixing cremophor, ethanol and saline at a ratio of 1:1:8, and prepared in accordance with the administered dose for each group as shown in the following table 4.
The anti-cancer activity was determined based on a tumor volume. The tumor volume was obtained by measuring a long axis and a short axis of the tumor by means of electronic callipers (CD-15CPX, Mitutoyo Corp., Japan) and calculating measured values according to a following equation (twice a week):
Tumor volume (mm^3)=(Long axis length×Short axis length^2)/2.

[3] = system: A-549 cancer cell lines; experiment: Anti-cancer activity (tumor volume) in A-549 lung cancer xenograft Balb/c nude mice; type: in vivo, human; conditions: A549 xenograft, docetaxel 2.5 mg/kg ip once a week, CKD-516 4 mg/kg po daily, eight weeks, FIG. 3, FIG. 4
Excerpt: A-549 cancer cell lines (1×10^7 cells), which are human lung cancer cell lines purchased from the ATCC, were subcutaneously injected into the mice. Particularly, a needle point was inserted into mice in the left side before injecting cancer cells, and moved from side to side to inject the cancer cells and to identify that an administered solution was not leaked out, such that a tumorigenesis was observed. Animals whose tumor sizes reached 100 mm^3 to 250 mm^3 were selected and used for an experiment.
Experimental groups were randomly divided as shown in the table 3 above. • Vehicle: Daily for eight weeks, oral administration; • Docetaxel: 2.5 mg/kg, once a week for eight weeks, intraperitoneal administration; • CKD-516: 4 mg/kg, daily for eight weeks, oral administration; and • CKD-516+Docetaxel: CKD-516 (4 mg/kg, daily for eight weeks, oral administration) to be administered first+Docetaxel (2.5 mg/kg, once a week for eight weeks, intraperitoneal administration).
For the tumor volume, statistical processing was performed by using a statistical processing program (GraphPad PRISM® Version 5.0, GraphPad Software, the U.S.).

[4] = date 4/10, docetaxel 6 mg/kg ip
[5] = date 4/14, docetaxel 6 mg/kg ip
[6] = date 4/17, docetaxel 6 mg/kg ip
[7] = date 4/21, docetaxel 6 mg/kg ip
[8] = date 4/24 (end of experiment), docetaxel 6 mg/kg ip

SMILES | Tumor volume (mm^3), mean ([1]; date 4/7, docetaxel 6 mg/kg ip) | Tumor volume (mm^3), mean [1, 4] | Tumor volume (mm^3), mean [1, 5] | Tumor volume (mm^3), mean [1, 6] | Tumor volume (mm^3), mean [1, 7] | Tumor volume (mm^3), mean [1, 8] | Tumor volume / tumor growth, result in words ([1]; docetaxel 6 mg/kg ip) | Tumor volume / tumor growth, result in words [2] | Tumor volume / tumor growth, result in words [3]
COc1cc(C(=O)c2ccc(-c3csc(NC(=O)[C@@H](N)C(C)C)n3)cc2-n2cncn2)cc(OC)c1OC [CKD-516, (S)—N-(4-(3-(1H-1,2,4-triazole-1-yl)-4-(3,4,5-trimethoxybenzoyl)phenyl)thiazole-2-yl)-2-amino-3-methylbutanamide] | 121.8 mm^3 | 146.3 mm^3 | 321.3 mm^3 | 432.4* mm^3 | 504.9 mm^3 | 790.7*** mm^3 | showed a similar tendency to the group dosed with docetaxel | showed a similar tendency to the group dosed with paclitaxel | the tumor did not almost grow
CC(=O)O[C@@]12CO[C@@H]1C[C@H](O)[C@@]1(C)C(=O)[C@H](O)C3=C(C)[C@@H](OC(=O)[C@H](O)[C@@H](NC(=O)OC(C)(C)C)c4ccccc4)C[C@@](O)([C@@H](OC(=O)c4ccccc4)[C@H]21)C3(C)C [Docetaxel, docetaxel] | 123.4 mm^3 | 178.0 mm^3 | 309.6 mm^3 | 460.5 mm^3 | 500.2*** mm^3 | 513.9*** mm^3 | a growth of the tumor was decreased over time compared to the negative control group, but the tumor volume was continuously increased | – | no significant difference in a growth rate of the tumor compared to the negative control group
CC(=O)O[C@H]1C(=O)[C@@]2(C)[C@H]([C@H](OC(=O)c3ccccc3)[C@]3(O)C[C@H](OC(=O)[C@H](O)[C@@H](NC(=O)c4ccccc4)c4ccccc4)C(C)=C1C3(C)C)[C@]1(OC(C)=O)CO[C@@H]1C[C@@H]2O [paclitaxel] | – | – | – | – | – | – | – | a growth of the tumor was decreased over time compared to the negative control group, but the tumor volume was continuously increased | –

— patent US20210236468A1, “COMPOSITION FOR PREVENTING OR TREATING CANCER, COMPRISING A VASCULAR DISRUPTING AGENT AND TAXANE COMPOUND” (Chong Kun Dang Pharmaceutical Corp., priority 2018, published 2021)
